Data: ChEMBL document CHEMBL1140270, “Synthesis and biological evaluation of new biphalin analogues with non-hydrazine linkers” (Bioorg Med Chem Lett, 2005)

Key:
[1] = molecular target: Delta-type opioid receptor (Mus musculus, UniProt P32300); test: In vitro agonist activity against Opioid receptor delta in mouse vas deferens; assay type: functional, tissue-based
[2] = In vitro inhibition of [3H]DPDPE binding to Opioid receptor delta
Mu-type opioid receptor = Mu-type opioid receptor (Cavia porcellus, UniProt P97266); test: In vitro agonist activity against Opioid receptor mu in guinea pig ileum/longitudinal muscle myenteric plexus; assay type: functional, tissue-based
[3] = In vitro inhibition of [3H]DAMGO binding to Opioid receptor mu
[4] = molecular target: Delta-type opioid receptor (Mus musculus) (UniProt P32300); test: Percent inhibition against Opioid receptor delta in mouse vas deferens; assay type: functional, tissue-based; settings: concentration not given here
[5] = molecular target: Mu-type opioid receptor (Cavia porcellus) (UniProt P97266); test: Percent inhibition against Opioid receptor mu in guinea pig ileum/longitudinal muscle myenteric plexus; assay type: functional, tissue-based; settings: concentration not given here
Mu-type opioid receptor (Cavia porcellus), sequence (P97266 whole entry): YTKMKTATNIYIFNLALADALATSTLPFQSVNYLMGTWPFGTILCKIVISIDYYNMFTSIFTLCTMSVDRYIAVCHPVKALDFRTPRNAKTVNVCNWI

Delta-type opioid receptor, sequence (P32300 whole entry): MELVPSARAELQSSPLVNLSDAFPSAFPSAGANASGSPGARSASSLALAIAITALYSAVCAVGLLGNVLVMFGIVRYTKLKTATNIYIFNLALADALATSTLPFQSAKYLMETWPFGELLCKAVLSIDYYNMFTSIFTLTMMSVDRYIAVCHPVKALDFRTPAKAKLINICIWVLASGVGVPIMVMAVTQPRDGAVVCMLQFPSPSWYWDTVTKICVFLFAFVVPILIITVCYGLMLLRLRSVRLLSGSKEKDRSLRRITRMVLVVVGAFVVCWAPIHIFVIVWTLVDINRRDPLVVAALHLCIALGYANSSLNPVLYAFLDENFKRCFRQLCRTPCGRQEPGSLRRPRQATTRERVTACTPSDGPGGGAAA
Delta-type opioid receptor (Mus musculus), sequence (P32300 whole entry): as above
Mu-type opioid receptor, sequence (P97266 whole entry): as the sequence (P97266 whole entry) above

Row | Structure (SMILES) | IC50 [1] [nM] | IC50 [2] [nM] | IC50 (Mu-type opioid receptor) [nM] | IC50 [3] [nM] | inhibition [4] [%] | inhibition [5] [%]
1 | C[C@@H](NC(=O)[C@@H](N)Cc1ccc(O)cc1)C(=O)NCC(=O)N[C@@H](Cc1ccccc1)C(=O)N1CCN(C(=O)[C@H](Cc2ccccc2)NC(=O)CNC(=O)[C@@H](C)N[C@@H](N)Cc2ccc(O)cc2)CC1 | 9.3 | 0.65 | 2.5 | 0.48 |  | 
2 | N[C@H](Cc1ccc(O)cc1)C(=O)N[C@H](Cc1ccccc1)C(=O)N1CCN(C(=O)[C@@H](Cc2ccccc2)NC(=O)[C@H](N)Cc2ccc(O)cc2)CC1 |  | 400 |  | 2700 | 8.1 | 25.5
3 | C[C@@H](NC(=O)[C@@H](N)Cc1ccc(O)cc1)C(=O)NCC(=O)N[C@@H](Cc1ccccc1)C(=O)Nc1ccccc1NC(=O)[C@H](Cc1ccccc1)NC(=O)CNC(=O)[C@@H](C)N[C@@H](N)Cc1ccc(O)cc1 | 0.72 | 0.19 | 40 | 1.93 |  | 
4 | C[C@@H](NC(=O)[C@@H](N)Cc1ccc(O)cc1)C(=O)NCC(=O)N[C@@H](Cc1ccccc1)C(=O)NNC(=O)[C@H](Cc1ccccc1)NC(=O)CNC(=O)[C@@H](C)NC(=O)[C@@H](N)Cc1ccc(O)cc1 [BIPHALIN] |  | 2.6 |  | 1.4 |  | 
5 | N[C@H](Cc1ccc(O)cc1)C(=O)N[C@H](Cc1ccccc1)C(=O)Nc1ccc(NC(=O)[C@@H](Cc2ccccc2)NC(=O)[C@H](N)Cc2ccc(O)cc2)cc1 |  | 2400 |  | 8200 | 17 | 43
6 | N[C@H](Cc1ccc(O)cc1)C(=O)N[C@H](Cc1ccccc1)C(=O)Nc1ccccc1NC(=O)[C@@H](Cc1ccccc1)NC(=O)[C@H](N)Cc1ccc(O)cc1 |  | 640 |  | 3010 | 47 | 61
7 | C[C@@H](NC(=O)[C@@H](N)Cc1ccc(O)cc1)C(=O)NCC(=O)N[C@@H](Cc1ccccc1)C(=O)Nc1ccc(NC(=O)[C@H](Cc2ccccc2)NC(=O)CNC(=O)[C@@H](C)N[C@@H](N)Cc2ccc(O)cc2)cc1 | 35.6 | 3.17 | 40 | 1.27 |  | 
